# Test results from patent publication US20050032221A1, “Dominant negative variants of methionine aminopeptidase 2 (MetAP2) and clinical uses thereof” (priority 2001, published 2005).
# Columns and labels:
# [1] = test system: peptide substrate (MGMM); test: MetAP activity assay of immunopurified HA-tagged yeast MetAP2 with Met-Gly-Met-Met; format: biochemical; details: immunopurified HA-tagged enzyme from map1Δ
# Experimental: […]. Approximately 2 μg of purified wild-type MetAP2 (WT) and MetAP2 (H174A) was separated on a 10% SDS-PAGE gel and visualized with coomassie blue staining. Specific activity for the wild-type MetAP2 was 11±0.5 U/mg.
# The purification of HA-tagged wild-type and mutant yeast MetAP2 from a yeast map1Δ strain (Klinkenberg et al., Arch. Biochem. Biophys. 347:193-200, 1997) was performed as previously described (Li and Chang, 1995) with slight modifications. A 1-liter yeast culture was grown aerobically at 30° C. in SG/Leu^− medium. Cells were collected at an OD600˜1-2 by centrifugation at 1500×g for 5 min. The pellet was rinsed with buffer XL (10 mM Hepes, pH 7.4; 1.5 mM MgCl2, 10% Glycerol [v/v]) plus 100 mM NaCl and fresh protease inhibitors (1 μg/ml aprotinin, 1 μg/ml leupeptin, 0.7 μg/ml pepstatin A, 1 mM phenylmethylsulfonyl fluoride). Cells were disrupted by vortexing (5 cycles of 1 min vortexing, 1 min on ice) with 0.5-mm acid-washed glass beads (Biospec Products, Inc.,). The lysate was then cleared at 10,000×g for 20 min at 4° C. Cleared lysate was applied to a Protein-Sepharose G column (Pharmacia) previously rinsed and pre-equilibrated with buffer XL and an anti-hemagglutinin epitope ([…]; SEQ ID NO:23) monoclonal antibody (BabCO). After loading, the column was washed with buffer XL until OD280<0.01. […]
# [2] = test system: yeast map1Δ strain; test: Yeast growth assay, map1Δ, expression under GAL1 promoter; format: cell-based, yeast (S. cerevisiae)
# Experimental: A haploid yeast map1Δ strain was transformed to leucine prototrophy with p425GAL1/MAP2 wild-type (WT), p425GAL1/map2 (H174A), or p425GAL1 vector alone (V). Each strain was grown to mid-logarithmic phase at 30° C. in minimal synthetic raffinose medium lacking leucine. Approximately 2×10^5 cells (ABS600) were then streaked onto minimal synthetic plates lacking leucine and supplemented with (A) glucose or (B) galactose. Plates were incubated for 4 days at 30° C.
# A haploid yeast map1Δ strain was transformed to leucine prototrophy with p425GAL1/MAP2 wild-type (WT), p425GAL1/map2 ([…]), p425GAL1/map2 (Δ2-57/H174A) or p425GAL1 vector alone (V). Each strain was grown to mid-logarithmic phase at 30° C. in minimal synthetic raffinose medium lacking leucine. […]
# For relative growth comparison, strains were grown to mid-logarithmic phase in 5 ml of 2% raffinose minimal media lacking leucine and ˜2×10^5 cells (ABS600) were streaked onto SD/Leu^− or SG/Leu^− plates, then incubated for 4 days at 30° C. For quantitative comparison, a growth curve was obtained (FIG. 4). […] The ABS600 of each 1 mL culture was measured and diluted to an ABS600 of 0.2 in 5 mL of SG/Leu^−. Each 5 mL culture was then grown aerobically at 30° C. and the ABS600 was measured in triplicate at one-hour intervals.
# peptide substrate (MGMM), sequence (P38174 whole entry H174A): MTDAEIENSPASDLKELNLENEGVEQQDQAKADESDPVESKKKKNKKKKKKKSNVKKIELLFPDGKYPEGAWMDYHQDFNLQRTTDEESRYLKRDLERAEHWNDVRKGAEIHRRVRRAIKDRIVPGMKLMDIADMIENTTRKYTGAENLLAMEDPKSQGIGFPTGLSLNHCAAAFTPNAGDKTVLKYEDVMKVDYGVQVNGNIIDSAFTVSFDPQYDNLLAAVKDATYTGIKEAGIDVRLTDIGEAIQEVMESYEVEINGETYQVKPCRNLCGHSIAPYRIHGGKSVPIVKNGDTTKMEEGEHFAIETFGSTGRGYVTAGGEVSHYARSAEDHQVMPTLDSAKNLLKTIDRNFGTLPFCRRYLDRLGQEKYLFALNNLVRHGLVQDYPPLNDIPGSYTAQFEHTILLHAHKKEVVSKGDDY
substance,measurement,setting,value
"MetAP2 (H174A): variant yeast MetAP2 with His174 replaced by alanine, N-terminal HA tag; dominant negative (SEQ ID NO:8)",activity against a peptide substrate (MGMM) in vitro,[1],no detectable activity
same,doubling time,"[2]; SG/Leu- medium, 30° C.",9.3 ± 0.6 h
same,colony size / growth relative to map1Δ with vector alone,"[2]; galactose plates, 4 days at 30° C.",smaller colonies
